In US20250304568A1, “PYRIMIDINES FOR DEGRADING BRUTON'S TYROSINE KINASE” (AbbVie Inc., priority 2022, published 2025):

Tests used:
[1] = molecular target: Human BTK enzyme, wild-type (Homo sapiens (Human), UniProt Q06187); assay: BTK screening: Btk kinase activity, electrophoretic mobility shift assay (MSA); type: biochemical; conditions: 50 μM ATP, 0.5 nM BTK enzyme, 15 minutes pre-incubation
Protocol: Btk kinase activity was measured in vitro using an electrophoretic mobility shift assay (MSA). The ability of Btk to phosphorylate a fluorescent peptide substrate (FAM-GEEPLYWSFPAKKK-NH2) was measured. The kinase reactions were assembled in a total volume of 25 μL per well in 384 well plates. The following was added to each well: compound buffer (or control); enzyme buffer; and substrate buffer, as further described below. […]
The terminated reactions were analyzed using a 12 channel LABCHIP® 3000 microfluidic detection instrument (available from Caliper Life Sciences, Waltham, MA). […] As substrate and product peptides were separated, two peaks of fluorescence were observed. Change in the relative fluorescence intensity of the substrate and product peaks was the parameter measured, reflecting enzyme activity. […] Capillary electrophoregrams (RDA acquisition files) were analyzed using HTS Well Analyzer software (available from Caliper Life Sciences, Waltham, MA).
Activity in each sample was determined as the product to sum ratio (PSR): P/(S+P), where P was the peak height of the product peptide and S was the peak height of the substrate peptide. For each compound, enzyme activity was measured at various concentrations (12 concentrations of compound spaced by 3× dilution intervals). […]

[2] = molecular target: His-tagged Cereblon/DDB1 complex (Homo sapiens (Human), UniProt Q96SW2); assay: Cereblon binding assay (AlphaLISA Human Cereblon Binding Kit, competition); conditions: 10 μM top dose, biotinylated ligand competition; read-out: CRBN IC50
Protocol: Cereblon binding was measured in vitro using an AlphaLISA® Human Cereblon Binding Kit (PerkinElmer, Waltham, MA) according to the manufacturer's protocol (“Alpha” refers to Amplified Luminescent Proximity Homogeneous Assay). In this assay, donor beads and acceptor beads come into proximity through ligand binding to CRBN protein. Excitation of the donor beads provokes the release of singlet oxygen that triggers a cascade of energy transfer reactions to the acceptor beads, resulting in a sharp peak in light emission at 615 nm.
Specifically, nickel chelate acceptor beads (PerkinElmer AL108M) were used to capture a 6×HIS-tagged CRBN protein, and streptavidin-coated donor beads (PerkinElmer 6760002) were used to capture 50 nM biotinylated ligand. […]
Detection: 10 μL detection reagents were added in low light conditions containing nickel chelate acceptor beads and streptavidin donor beads (Perkin Elmer 6760002), resulting in a final concentration 20 μg/ml. Plates were incubated 1 hour and read on a PerkinElmer™ Envision™ plate reader (680 nm excitation and […] emission settings). The IC50 of each compound was determined by calculating percent inhibition from no drug and no protein controls, and the Ki of each compound was calculated using the Cheng-Prusoff transformation. From the Ki, the ICs50 values were determined. […]

[3] = system: TCL1-driven CLL bearing BTK^C481S mutation; assay: TCL1-driven CLL bearing BTK^C481S mutation in C57BL/6 mice, circulating leukemia burden; type: in vivo
From the text: Eμ-TCL1 CLL transgenic mice (Crogen Pharmaceuticals LLC) were crossed with […] knock-in mice (AbbVie) to generate Eμ-TCL1 transgenic mice carrying the […] mutation. The leukemic splenocytes from these BTK^C481S Eμ-TCL1 transgenic mice (Passage 1) were transplanted intravenously into C57BL/6 mice, leading to CLL development in the peripheral blood and spleen. When circulating CLL burden (CD5+CD19+ cells as described below) in the recipient mice reached over 90%, their splenocytes (Passage 2) containing high CLL burden were cryopreserved and used for CLL efficacy studies. […]
To determine the absolute/total leukocyte numbers, complete blood counts were determined for each mouse using the Genesis™ veterinary hematology analyzer (Oxford Science Inc.).
Cells isolated from murine peripheral blood mononuclear cells (PMBCs) were collected to determine antigen expression. […] Cells were gated on CD45+, and thereafter the percentage of cells that were CD5+CD19+ from that subset was calculated. […]
Whole blood was collected weekly post tumor implantation via submandibular cheek bleeding. Circulating leukemic burden was calculated by multiplying absolute/total leukocyte count with the percentage of the leukocytes have the immunophenotype CD19^+CD5^+. […]

Compound | IC50 [1] [nM] | IC50 [2] [nM] | CLL burden control (no increase from the initial tumor burden) ([3]; Dosage 3 and Dosage 4, once daily (QD) for 19 days) | circulating leukemia burden (CD19+CD5+ CLL cells per μL) ([3]; once daily (QD) for 19 days, Dosage 1 to 4, dose-dependent manner, FIG. 1)
Cc1c([C@@H](C)NC(=O)c2nc(C(C)(C)C)no2)ccc(-c2cc(Nc3ccc(N4CCN(CCc5ccc(N6CCC(=O)NC6=O)cc5)C[C@@H]4C)cn3)ncn2)c1F [Example 10, 3-tert-butyl-N-[(1R)-1-{4-[6-({5-[(2S)-4-{2-[4-(2,4-dioxo-1,3-diazinan-1-yl)phenyl]ethyl}-2-methylpiperazin-1-yl]pyridin-2-yl}amino)pyrimidin-4-yl]-3-fluoro-2-methylphenyl}ethyl]-1,2,4-oxadiazole-5-carboxamide] | 0.106 | 6310 | – | –
Cc1cc(-c2cc(Nc3ccc(N4CCN(CCc5ccc(N6CCC(=O)NC6=O)cc5)C[C@@H]4C)cn3)ncn2)ccc1[C@@H](C)NC(=O)c1nc(C(C)(C)C)no1 [Example 1, 3-tert-butyl-N-[(1R)-1-{4-[6-({5-[(2S)-4-{2-[4-(2,4-dioxo-1,3-diazinan-1-yl)phenyl]ethyl}-2-methylpiperazin-1-yl]pyridin-2-yl}amino)pyrimidin-4-yl]-2-methylphenyl}ethyl]-1,2,4-oxadiazole-5-carboxamide] | – | – | Complete CLL burden control | controlled circulating leukemia burden
Cc1c([C@@H](C)NC(=O)c2nc(C(C)(C)C)no2)ccc(-c2cc(Nc3ccc(N4CCN(CCc5ccc(N6CCC(=O)NC6=O)cc5)CC4)cn3)ncn2)c1F [Example 11, 3-tert-butyl-N-{(1R)-1-[4-(6-{[5-(4-{2-[4-(2,4-dioxo-1,3-diazinan-1-yl)phenyl]ethyl}piperazin-1-yl)pyridin-2-yl]amino}pyrimidin-4-yl)-3-fluoro-2-methylphenyl]ethyl}-1,2,4-oxadiazole-5-carboxamide] | 0.0973 | 2150 | – | –
